Laboratory results from patent US20070015827A1, “Methods and compositions for treating ophthalmic conditions via serum retinol, serum retinol binding protein (RBP), and/or serum retinol-RBP modulation” (Sytera, Inc., priority 2005, published 2007).
“Also recorded” adds a separate entry of the source.

Experiments:
[1] = cited from earlier work
[2] = system: wild-type mice; test: Ocular retinoid content after 7 days of HPR (HPLC); assay type: in vivo, mouse; conditions: HPR 5-20 mg/kg/day i.p.
Protocol: (§1) In one study, wild-type mice were given varied doses of HPR (5-20 mg/kg/day, i.p. in DMSO) for 7 days. Control mice received only DMSO. Mice were maintained on a 12 h/12 h light/dark cycle throughout the treatment period. At the end of the study, the ocular retinoid content was determined by high-performance liquid chromatography (HPLC). Light-adapted, rather than dark-adapted, retinoid profiles were obtained so that a measure of retinoids could be obtained while the visual cycle was actively regenerating chromophore. […] This finding is in sharp contrast to data obtained from analysis of mice treated with 13-cis retinoic acid. […] Reduced 11cRDH activity would lead to reduced levels of 11-cis retinal and accumulation of 11-cis retinol. Free 11-cis retinol would be rapidly esterified via LRAT activity resulting in increased 11-cis retinyl esters. This effect of 13-cis retinoic acid on retinoid biosynthesis was also observed in rats in Sieving P A, et al., Proc Natl Acad Sci USA. 2001; 98(4): 1835-40.

[3] = Ocular retinoid content after 7 days of HPR (HPLC); assay type: in vivo, mouse; conditions: mouse, RPE (retinal pigment epithelium), intraperitoneal, HPR 5-20 mg/kg/day i.p. in DMSO, dose-dependent, read-out: accumulation of HPR within the RPE
Protocol: as §1

[4] = in vivo; cited from earlier work
[5] = target: interaction of TTR with RBP (Homo sapiens, UniProt P02753); conditions: in vitro; cited from earlier work
[6] = target: RBP (Homo sapiens, UniProt P02753); test: Competition binding assay RBP-retinol/HPR by fluorescence quenching
Excerpt: Based upon these findings, we sought to further explore the mechanism(s) of retinol reduction during HPR treatment. A tenable hypothesis is that HPR may displace retinol by competing at the retinol binding site on RBP. […] Therefore, one can measure displacement of retinol from the RBP holoprotein by observing decreases in both protein (340 nm) and retinol (470 nm) fluorescence. We performed a competition binding assay using RBP-retinol/HPR concentrations which were similar to those determined from the 14 day trial at 20 mg/kg HPR described above. […] In the control assays, decreases in retinol fluorescence were associated with concomitant increases in protein fluorescence, see FIG. 3a. This effect was determined to be due to temperature effects as the dissociation constant of RBP-retinol increases (decreased affinity) with […] at 37C. […] Increases of HPR beyond equimolar amounts relative to RBP holoprotein (e.g., 2.0 μM HPR to 1.0 μM RBP) will produce a population of RBP which is largely associated with HPR.

[7] = system: abcr null mutant mice; test: Lipofuscin autofluorescence in RPE and light microscopy of retina; assay type: in vivo, mouse

CC1=C(/C=C/C(C)=C/C=C/C(C)=C/C(=O)Nc2ccc(O)cc2)C(C)(C)CCC1 [HPR, N-(4-hydroxyphenyl)retinamide]
observed toxicities ([1]; 4800 mg/m^2 dose, three times daily): minimal | plasma concentration after high fat meals versus carbohydrate meals ([1]; human, in vivo): three times greater | differences in light-adapted retinoid levels [2]: no significant differences | concentration at 7 days [3]: 4 to 6 µM | effect on serum retinol and RBP [4]: reductions in serum retinol and RBP; also recorded: profound reductions | effect on interaction of TTR with RBP [5]: interferes with the normal interaction of TTR with RBP | competitive binding of HPR to RBP [6]: dose-dependent and saturable | displacement of retinol from RBP-retinol holoprotein ([6]; physiological temperature (37C), protein (340 nm) and retinol (470 nm) fluorescence): efficiently displaces retinol | lipofuscin autofluorescence in the RPE ([7]; HPR daily for 28 days): significantly reduces; also recorded: less than that of an age-matched wild-type animal | retinal morphology (light microscopy) ([7]; HPR-treated animals): no aberrant morphology
